Test: Compound was tested for inhibition of gel-filtered platelet (GFP) aggregation induced by alpha-thrombin

IC50 [nM]	SMILES
83	CN[C@H](Cc1ccccc1)C(=O)N1CCCC1C(=O)N[C@H](C=O)CCCNC(=N)N (stereo partly drawn) [(S)-1-((R)-2-Methylamino-3-phenyl-propionyl)-pyrrolidine-2-carboxylic acid ((S)-1-formyl-4-guanidino-butyl)-amide]
32	CN[C@H](Cc1ccccc1)C(=O)N1CCC[C@H]1C(=O)N[C@@H](CCCN=C(N)N)C(=O)c1nc2ccccc2s1 [RWJ-50353]

From BindingDB's records for doi:10.1021/jm030493t (Johnson & Johnson Pharmaceutical Research & Development, 2004)
